Patent US20110104175A1, “METHODS OF TREATMENT FOR PULMONARY FIBROSIS” (CEDARS-SINAI MEDICAL CENTER, priority 2008, published 2011)
Like-named read-outs stand apart in the source and are kept apart here. Peptide text beside a SMILES is read from it.

What was measured:
wild-type and N-KO mice [1] = settings: for cell content of the bronchoalveolar lavage: intratracheal bleomycin without S17092, two weeks
Excerpt: (§1) Preparation of Mice. We generated mice expressing site-inactivated ACE by homologous recombination. N-KO mice express a full length ACE protein where the N-terminal catalytic site was inactivated by mutating two zinc-binding histidines (^395H and ^399H) to lysines. In the C-KO strain, ^993H and ^997H, which are responsible for the zinc binding and catalytic activity of the C-terminal enzymatic site, were mutated to lysine. The generation of these two strains of mice has been described in detail prior. Both N-KO and C-KO mice are a genetic mix of strains 129 and C57BL/6. Age and gender-matched littermate controls were used in all studies. All mice used in this study have only one functional renin gene. Drug Administration. The administration of bleomycin was performed under anesthesia by intratracheal instillation as previously described. A small skin incision was made to expose the trachea. A 25-gauge needle was inserted directly into the trachea without reaching the bifurcation and the animals were maintained on the surgical board with a 30 degree angle to ensure a correct diffusion of the drug or saline to both lungs. Bleomycin was solubilized in water, aliquoted, lyophilized and kept at −20 C. For each experiment a fresh aliquot was dissolved in saline and, unless otherwise indicated, administered in a dose of 1 mg/kg. The concentration of the solution was adapted to inject 2 μl/g, The skin was then sutured and the animal monitored until complete recovery.
(§2) Absorbance was measured at 550 nm.

[2] = test system: wild-type, N-KO and C-KO mice
Excerpt: as §1, §2

rats = settings: model of heart infarction; cited from earlier work
[3] = test system: ACE N-domain and C-terminal domain; settings: N-domain versus C-terminal domain; cited from earlier work
[4] = cited from earlier work
[5] = mouse; cited from earlier work
[6] = test system: wild-type, N-KO and C-KO mice; assay: Weight loss after intratracheal instillation of bleomycin
Excerpt: as §1
Weight loss is a typical feature secondary to bleomycin administration and is associated with the severity of the pulmonary lesions.

wild-type and N-KO mice [7] = assay: Survival analysis after intratracheal bleomycin
Excerpt: as §1, §2

wild-type and N-KO mice [8] = assay: Lung histology 14 days after bleomycin; type: in vivo, mouse; settings: bleomycin 0.5 mg/kg
Procedure: A group of 8 N-KO and 8 wild-type control mice received 0.5 mg/kg body weight of bleomycin. These animals were sacrificed 14 days later. Under deep anesthesia, the thoracic cage was opened to expose the lung. A 25 G needle was secured in the trachea and 0.8 to 1 ml of 10% buffered formalin was injected until the lungs were inflated. The trachea was then ligatured. The whole lung was carefully collected in one block with the heart and immersed in formalin overnight. The tissue was then dehydrated and paraffin embedded using standard techniques. Five micron coronal sections were obtained from the central part of the lung and were stained with either Masson's trichrome or with hematoxylin and eosin. For each animal, both right and left lobes of the lung were examined by a pathologist blinded to the genotype of the mice.

patients = settings: cited from earlier work

For `CC(=O)N[C@@H](CO)C(=O)N[C@@H](CC(=O)O)C(=O)N[C@@H](CCCCN)C(=O)N1CCC[C@H]1C(=O)O` [AcSDKP, N-acetyl-seryl-aspartyl-lysyl-proline] (Ac-SDKP-OH), the lavage cellularity (wild-type and N-KO mice [1]; wild-type mice, AcSDKP 1 mg/kg/day by osmotic minipump, bleomycin on day 2, two weeks later, versus saline-filled minipump) is listed as “substantially reduced lavage cellularity”, the “collagen deposition, as assessed by hydroxyproline” value ([2]; wild-type mice, AcSDKP 1 mg/kg/day by osmotic minipump, bleomycin) is listed as “did not significantly reduce the collagen deposition” and the collagen deposition (rats) is listed as “prevented and even reversed collagen deposition”.

For “Ac-Asp-(L)Pheψ(PO2—CH2)(L)Ala-Ala-NH2 (Ac-DFAA-NH2; also: Phe2-Ala3 peptide bond replaced by phosphinic ψ(PO2-CH2) bond) [RXP 407]”, the “dissociation constant for the ACE N-domain relative to the C-terminal domain” value [3] is listed as “three orders of magnitude lower”, the “elevation of plasma Ac-SDKP” value ([4]; RXP 407 combined with Ac-SDKP infusion) is listed as 16 fold and the “increase of plasma level of Ac-SDKP” value ([4]; mouse, RXP 407 alone) is listed as at most 6 fold. For the same molecule, the stability in vivo [5] was “stable in vivo”.

With bleomycin the “cell content of the bronchoalveolar lavage” value (wild-type and N-KO mice [1]; N-KO mice) was 12.73±1.58 10^5 cells per lung, the “cell content of the bronchoalveolar lavage” value (wild-type and N-KO mice [1]; wild-type mice) was 24.21±3.10 10^5 cells per lung and the “pulmonary collagen levels (hydroxyproline)” value ([2]; N-KO mice, two weeks after intratracheal bleomycin) was “did not increase pulmonary collagen levels”. For the same molecule, the “hydroxyproline content of lungs” value ([2]; wild-type and C-KO mice, two weeks after intratracheal bleomycin) was “significantly increased the hydroxyproline content”, the “weight loss, C-KO mice versus wild-type controls” value ([6]; C-KO mice) was “no significant difference in weight loss” and the weight loss ([6]; N-KO mice) was 1.60±1.23%. The weight loss ([6]; wild-type animals) was 9.26±2.52%, the long-term survival (wild-type and N-KO mice [7]; N-KO mice, bleomycin 5 mg/kg body weight intratracheal) was 4 of 15 and the “mice surviving 12 days after drug administration” value (wild-type and N-KO mice [7]; wild-type mice, bleomycin 5 mg/kg body weight intratracheal) was 1 of 15. For the same molecule, the deaths (wild-type and N-KO mice [7]; wild-type or N-KO mice, bleomycin 1 mg/kg body weight intratracheal) was “virtually no deaths”, the “lung histology (inflammation, collagen stripes) versus wild-type” value (wild-type and N-KO mice [8]; N-KO mice) was “much reduced” and the lung histology (wild-type and N-KO mice [8]; wild-type mice) was “extensive lung injury”. The “patients with lung injury who die of lung injury” value (patients; of the patients who develop lung injury) was 1-3% and the “patients developing sufficient lung injury to necessitate cessation of treatment” value (patients; patients treated with bleomycin, meta-analysis) was 10 to 50%.
